Measurements taken from paper PMC9307114, “Discovery and SAR analysis of phenylbenzo[d][1,3]dioxole-based proprotein convertase subtilisin/kexin type 9 inhibitors” (Journal of Enzyme Inhibition and Medicinal Chemistry, 2022).

Experiments:
[1] = tested on: LDL uptake of HepG2 cells; assay: Fluorescent LDL uptake assay in the presence of PCSK9; format: cell-based, human; details: PCSK9 treatment group 29.82%
Experimental: Extracellular LDL uptake assay was performed to evaluate the functional effects of PCSK9/LDLR PPI inhibition. The effects of active compounds in improving the capacity of HepG2 cells to uptake the fluorescent LDL were investigated using SBC-115337 as the positive control. […] The tested compound A12, B1, B3, B4 and B14 strengthened the ability of HepG2 cells to absorb LDL from 29.82% of the PCSK9 treatment group up to 32.78%, 33.29%, 39.58%, 36.24% and 42.41% at the doses of 5 µM, and 44.80%, 47.15%, 50.67%, 49.94 and 64.27% at the doses of 10 µM, respectively.
HepG2 cells (2 × 10^4 cells per well) were seeded in black 96-well plates and cultured for more than 24 h. The following day, cells were treated with 4.0 μg/ml K9 alone and the tested compounds with the presence of 4.0 μg/ml of K9, and vehicle (PBS) for 8 h. At the end of the treatments, the culture medium was replaced with 50.0 μl/well LDL-DyLight™ 550 working solution (Cayman Chemical Company, US). The cells were additionally incubated for 16 h at 37 °C. Then the cells were washed with PBS one time, then added PBS with 100.0 μl/well. The degree of LDL uptake was measured using a plate reader (EnSpire, Perkin Elmer Corporation) at excitation wavelengths 540 nm and emission wavelengths 570 nm.

[2] = tested on: LDLR level on the surface of HepG2 cells; assay: LDLR expression assay, In-Cell Western (ICW), in the presence of PCSK9; format: cell-based, human; details: for effect on LDLR protein level (in words): HepG2 cells in the presence of PCSK9, compared with positive control SBC-115337; for proportion of LDLR: PCSK9 alone 34.33%
Experimental: LDLR is degraded in lysosomes by binding to PCSK9. Thus, inhibition of PCSK9/LDLR PPI could increase the LDLR level on the surface of hepatocytes. In the current study, human hepatic HepG2 cells were selected for the investigation of the active compounds for LDLR expression. SBC-115337, developed by Shifa Biomedical Corporation, as a potent PCSK9/LDLR PPI inhibitor was utilised as the positive control. All the synthesised compounds were evaluated to be safe with low inhibitory ratios at the dose of 10 µM in the MTT assay (Tables 1–3). Then, in cell western (ICW) assay was performed to detect the LDLR level on the surface of HepG2 cells.
The HepG2 cell line was grown in a humidified incubator with 5% CO2 at 37 °C and cultured in DMEM-High glucose medium with 10% (v/v) heat-inactivation foetal bovine serum, 2 mM L-glutamine and 100 U/ml penicillin-streptomycin. The expression level of LDLR in HepG2 cells was determined by In-Cell Western (ICW) Assay as described previously. Briefly, cells were plated in a 96-well plate (2 × 10^4 cells per well) and cultured for more than 24 h, followed by washing with PBS and starving overnight in DMEM without FBS. HepG2 cells were treated with 4.0 μg/ml PCSK9 (K9) alone and the tested compounds with the presence of 4.0 μg/ml of K9, and vehicle (PBS) for 8 h. Then cells were washed with PBS one time and fixed in 4% paraformaldehyde for 20 min. Cells were washed 5 times with PBS, then were blocked with 5% BSA in PBS for 1 h. LDLR monoclonal Antibody solution (1:1000 in 5% BSA in PBS, 50.0 μL/well) was incubated overnight at 4 °C. Subsequently, the cells were washed 5 times with PBS. Goat anti-mouse IgG-HRP secondary antibody solution (1:2000 in 5% BSA in PBS, 50.0 μL/well) was added and incubated 1 h at RT. Then cells were washed 5 times with PBS and added with TMB substrate, then incubated at RT until desired colour was developed. 50.0 μL/well of 2 M H2SO4 were added to stop the reaction and the absorbance at 450 nm was measured using a plate reader (EnSpire, Perkin Elmer Corporation).

[3] = target: PCSK9/LDLR PPI (Homo sapiens, UniProt Q8NBP7); assay: PCSK9-LDLR TR-FRET assay (PCSK9/LDLR PPI inhibitory screening); format: binding; details: for inhibition at 10 µM: mean of three experiments, read-out: PCSK9 percentage inhibitory rate; for IC50: dose-dependent IC50 plot, Figure 3, read-out: PCSK9 IC50 (inhibition of PCSK9/LDLR PPI)
Experimental: The PCSK9/LDLR time-resolved fluorescence resonance energy transfer (TR-FRET) assay was performed to evaluate the activity of synthesised compounds in inhibition of PCSK9-LDLR binding. The A series compounds were firstly synthesised for the PCSK9/LDLR PPI inhibitory test. […] Therefore, a group of A12 derivatives (B series) were synthesised with 4-chlorobenzyl substituted in the amino group and various substitutions introduced to the carboxylic group. […] To confirm whether the 4-chloromethyl group is essential for the PPI inhibitory activity, a new series of compounds (C series) were synthesised with the 4-chloromethyl group replaced by 4-methoxymethyl moiety. The inhibitory activity was observed, most likely resulting from the 4-methoxymethyl substitution (Table 3).
The compounds were dissolved in 100% DMSO; then 2 µL of the dilution was added to a 20 µL of reaction to keep […] in all of reactions. The binding reaction was conducted at room temperature. The reaction mixture in assay buffer contains PCSK9, the indicated amount of the inhibitor, ligand LDLR, and the reaction dyes. The reaction mixture was incubated for 120 min before detection of the TR-FRET signal. Fluorescence signals for both the donor and acceptor dyes were measured using a Tecan Infinite M1000 plate reader. TR-FRET was recorded as the ratio of the fluorescence of the acceptor and the donor dyes (acceptor/donor). The TR-FRET data were analysed using Graphpad Prism software.

[4] = tested on: HepG2 cells; assay: MTT assay on HepG2 cells; format: cell-based; details: Homo sapiens, mean of three experiments, read-out: HepG2 percentage inhibitory rate
[5] = 5 µM compound with 4.0 μg/ml PCSK9
[6] = 10 µM compound with 4.0 μg/ml PCSK9

Chain of PCSK9/LDLR PPI (Q8NBP7 153-692): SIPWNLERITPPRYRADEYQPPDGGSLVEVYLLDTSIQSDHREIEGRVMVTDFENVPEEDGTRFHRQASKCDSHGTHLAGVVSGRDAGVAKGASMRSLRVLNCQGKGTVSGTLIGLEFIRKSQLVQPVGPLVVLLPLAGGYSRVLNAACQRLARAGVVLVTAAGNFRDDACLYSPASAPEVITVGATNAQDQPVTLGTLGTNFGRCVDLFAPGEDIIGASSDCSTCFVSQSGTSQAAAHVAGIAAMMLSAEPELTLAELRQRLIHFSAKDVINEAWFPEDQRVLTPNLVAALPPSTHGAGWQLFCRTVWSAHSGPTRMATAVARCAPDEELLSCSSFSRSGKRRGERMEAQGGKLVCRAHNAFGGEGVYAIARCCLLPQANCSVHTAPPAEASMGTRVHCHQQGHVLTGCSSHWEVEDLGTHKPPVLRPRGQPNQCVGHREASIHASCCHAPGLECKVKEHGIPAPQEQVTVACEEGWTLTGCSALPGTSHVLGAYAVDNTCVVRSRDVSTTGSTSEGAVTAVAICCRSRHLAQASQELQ
Chain of PCSK9/LDLR PPI (Q8NBP7 31-152 partner limits assumed): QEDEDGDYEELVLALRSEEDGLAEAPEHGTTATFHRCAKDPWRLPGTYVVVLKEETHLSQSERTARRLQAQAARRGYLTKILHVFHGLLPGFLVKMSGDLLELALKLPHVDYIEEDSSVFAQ

Structure (SMILES) | LDL uptake of HepG2 cells [1, 5] [%] | LDL uptake of HepG2 cells [1, 6] [%] | effect on LDLR protein level (in words) [2] | inhibition at 10 µM [3] [%] | IC50 [3] [µM] | inhibition at 10 µM [4] [%] | proportion of LDLR ([2]; 5 µM compound with 4.0 μg/ml PCSK9, 8 h) [%] | proportion of LDLR ([2]; 10 µM compound with 4.0 μg/ml PCSK9, 8 h) [%]
COc1cc(NC(=O)c2ccc(-c3cc4c(cc3NC(=O)c3ccc(CCl)cc3)OCO4)cc2)cc(OC)c1OC [A12, 4-(Chloromethyl)-N-(6-(4-((3,4,5-trimethoxyphenyl)carbamoyl)phenyl)benzo[d][1,3]dioxol-5-yl)benzamide] | 32.78 | 44.80 | restored the LDLR protein level in a dose dependent manner | 45.1 ± 0.12 | 70.8 | 7.85 ± 0.25 | – | –
O=C(Nc1ccc(F)cc1)c1ccc(-c2cc3c(cc2NC(=O)c2ccc(CCl)cc2)OCO3)cc1 [B3, 4-(Chloromethyl)-N-(6-(4-((4-fluorophenyl)carbamoyl)phenyl)benzo[d][1,3]dioxol-5-yl)benzamide] | 39.58 | 50.67 | restored the LDLR protein level in a dose dependent manner | 46.3 ± 2.77 | 23.4 | 8.09 ± 0.76 | – | –
O=C(Nc1ccc(O)cc1)c1ccc(-c2cc3c(cc2NC(=O)c2ccc(CCl)cc2)OCO3)cc1 [B4, 4-(Chloromethyl)-N-(6-(4-((4-hydroxyphenyl)carbamoyl)phenyl)benzo[d][1,3]dioxol-5-yl)benzamide] | 36.24 | 49.94 | restored the LDLR protein level in a dose dependent manner | 45.2 ± 2.85 | 24.6 | 5.42 ± 0.38 | – | –
COc1ccccc1N1CCN(C(=O)c2ccc(-c3cc4c(cc3NC(=O)c3ccc(CCl)cc3)OCO4)cc2)CC1 [B14, 4-(Chloromethyl)-N-(6-(4-(4-(2-methoxyphenyl)piperazine-1-carbonyl)phenyl)benzo[d][1,3]dioxol-5-yl)benzamide] | 42.41 | 64.27 | restored the LDLR protein level in a dose dependent manner | 64.6 ± 1.54 | 16.4 | 5.71 ± 0.54 | 50.55 | 66.51
O=C(Nc1ccc(Cl)cc1)c1ccc(-c2cc3c(cc2NC(=O)c2ccc(CCl)cc2)OCO3)cc1 [B1, 4-(Chloromethyl)-N-(6-(4-((4-chlorophenyl)carbamoyl)phenyl)benzo[d][1,3]dioxol-5-yl)benzamide] | 33.29 | 47.15 | restored the LDLR protein level in a dose dependent manner | 54.3 ± 1.54 | 62.2 | 9.97 ± 0.39 | – | –
COc1cc(NC(=O)c2ccc(-c3cc4c(cc3NC(=O)c3ccccc3F)OCO4)cc2)cc(OC)c1OC [A5, 2-Fluoro-N-(6-(4-((3,4,5-trimethoxyphenyl)carbamoyl)phenyl)benzo[d][1,3]dioxol-5-yl)benzamide] | – | – | – | 4.77 ± 0.31 | – | 5.96 ± 0.66 | – | –
